This is an account of results in US5182300A, “Furosemide salts” (Roussel Uclaf, priority 1989, dated 1993).

Where a name gives a salt, the structure may show the parent alone.

The subject of series [1] is atopic asthmatic patients. The note with it: aerosol; bronchospasms induced by physical exercises, ultrasonic fogs and immunological stimulations; 10 mg/ml sodium salt solution inhaled for 15 to 20 minutes; cited from earlier work.
The nature of series [2]: initial measurement of the pH of the solution. The format is physicochemical.

Turning to `NS(=O)(=O)c1cc(C(=O)O)c(NCc2ccco2)cc1Cl` [furosemide, 4-chloro-N-furyl-5-sulfamoyl-anthranylic acid], in series [1], the prevention of bronchospasms result is recorded as “prevent bronchospasms”.
For `NS(=O)(=O)c1cc(C(=O)O)c(NCc2ccco2)cc1Cl` [furosemide salt of L-lysine, L-lysine salt of furosemide], the “pH (initial measurement)” value is recorded as 7.00 in series [2] (Sol. 1, water, 97.2 mg/ml); 7.09 in series [2] (Sol. 2, physiol. sol., 184.4 mg/ml); 7.32 in series [2] (Sol. 3, water, 275.3 mg/ml); 7.06 in series [2] (Sol. 4, water, 125.0 mg/ml, kept at 60° C.); 7.06 in series [2] (Sol. 5, water, 125.0 mg/ml, kept at 25° C. away from the light); 6.95 in series [2] (Sol. 6, water, 90.4 mg/ml). The “pH (initial measurement)” value in series [2] (Sol. 7, water containing 4% by weight of mannitol, 72.1 mg/ml) came to 7.06.
